In patent publication US10125123B2, “Small molecule IRE1-α inhibitors” (Cornell University, priority 2016, dated 2018):

Biological target: T1, IRE1α (Homo sapiens, UniProt O75460)
T1 construct: purchased SignalChem
Assay: In vitro FRET assay (XBP1 RNA probe cleavage by IRE1α)
Settings: biochemical FRET assay, 2 nM IRE1α
Description: In vitro FRET assay was performed to evaluate the ability of select compounds to inhibit IRE1, the results of which are summarized in the following table.
To perform the in vitro FRET assay, 1× complete assay buffer (CAB; […], 50 mM sodium citrate pH 7.15, 1 mM magnesium acetate, 0.02% Tween 20) was used to dilute SignalChem IRE1α in protein to a final concentration of 2 nM. Selected compounds were serially diluted with DMSO in a non-binding black 384-well plate for a total of 15 μl in each well. 2 μl of the serially diluted compound or DMSO control were then added to new wells containing 98 μl of 1×CAB, for a total volume of 100 μl, 10 μl of which were then transferred to wells of a new plate. 5 μl of the diluted IRE1α was then added to each well. 5 μl of a […] XBP1 RNA probe was then added to each well. Fluorescence was then read over 30 minutes in kinetic mode (485/515 nm). Two RNA probes were used, XBP1 wildtype (CAUGUCCGCAGCACAUG; SEQ ID NO: 1) which is able to be spliced by active IRE1α or XBP1 mutant (CAUGUCCCCAGCACAUG; SEQ ID NO: 2) which is unable to be spliced. Each probe contained a 5′ 6-FAM modification and a 3′ IOWA Black FQ modification. […]

T1 sequence (O75460 19-977): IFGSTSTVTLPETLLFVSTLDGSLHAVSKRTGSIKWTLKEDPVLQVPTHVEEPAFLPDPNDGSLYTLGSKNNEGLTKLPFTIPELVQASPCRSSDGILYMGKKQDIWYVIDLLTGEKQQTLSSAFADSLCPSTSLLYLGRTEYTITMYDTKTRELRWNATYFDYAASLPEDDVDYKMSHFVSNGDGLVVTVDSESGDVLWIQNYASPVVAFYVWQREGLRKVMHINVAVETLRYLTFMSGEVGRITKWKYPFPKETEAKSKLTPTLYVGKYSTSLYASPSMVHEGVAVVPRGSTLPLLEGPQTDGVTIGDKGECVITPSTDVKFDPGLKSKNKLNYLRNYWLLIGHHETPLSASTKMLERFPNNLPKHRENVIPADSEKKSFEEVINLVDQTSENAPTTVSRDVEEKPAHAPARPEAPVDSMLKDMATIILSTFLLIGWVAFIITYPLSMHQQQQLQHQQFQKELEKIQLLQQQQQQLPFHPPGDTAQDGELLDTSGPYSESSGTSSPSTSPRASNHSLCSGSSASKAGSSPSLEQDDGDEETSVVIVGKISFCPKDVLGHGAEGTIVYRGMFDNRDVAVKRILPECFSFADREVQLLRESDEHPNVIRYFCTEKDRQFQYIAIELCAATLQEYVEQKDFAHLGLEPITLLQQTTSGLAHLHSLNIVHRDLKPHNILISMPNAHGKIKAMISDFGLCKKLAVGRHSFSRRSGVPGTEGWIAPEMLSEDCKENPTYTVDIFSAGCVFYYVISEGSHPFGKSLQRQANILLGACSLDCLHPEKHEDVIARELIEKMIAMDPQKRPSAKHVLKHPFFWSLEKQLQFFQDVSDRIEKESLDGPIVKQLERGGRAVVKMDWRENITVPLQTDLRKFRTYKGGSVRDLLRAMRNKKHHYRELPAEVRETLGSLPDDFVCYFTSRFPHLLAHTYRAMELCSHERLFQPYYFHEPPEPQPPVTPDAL

| EC50 [µM] | Structure (SMILES) |
| --- | --- |
| > 100 | CSc1ccccc1NC(=O)Nc1cc(-c2ccc3ccncc3c2)n(C)n1 [Compound 68, 1-(5-(isoquinolin-7-yl)-1-methyl-1H-pyrazol-3-yl)-3-(2-(methylthio)phenyl)urea] |
| ≤ 5 | CN1CCN(Cc2ccc(NC(=O)Nc3nn(C)c4cc(-c5cccnc5)ccc34)cc2C(F)(F)F)CC1 [Compound 1, 1-(1-methyl-6-(pyridin-3-yl)-1H-indazol-3-yl)-3-(4-((4-methylpiperazin-1-yl)methyl)-3-(trifluoromethyl)phenyl)urea] |
| > 100 | CN1CCN(Cc2ccc(NC(=O)Nc3cc(-c4ccc5oncc5c4)n(C)n3)cc2C(F)(F)F)CC1 [Compound 3, 1-(5-(benzo[d]isoxazol-5-yl)-1-methyl-1H-pyrazol-3-yl)-3-(4-((4-methylpiperazin-1-yl)methyl)-3-(trifluoromethyl)phenyl)urea] |
| > 100 | CN1COc2cc(NC(=O)Nc3cc(-c4ccc5ccncc5c4)n(C)n3)ccc2C1 [Compound 62, 1-(5-(isoquinolin-7-yl)-1-methyl-1H-pyrazol-3-yl)-3-(3-methyl-3,4-dihydro-2H-benzo[e][1,3]oxazin-7-yl)urea] |
| 5 to 50 | CN1CCC(=Cc2ccc(NC(=O)Nc3cc(-c4ccc5cc(N)ncc5c4)n(C)n3)cc2C(F)(F)F)CC1 [Compound 71, 1-(5-(3-aminoisoquinolin-7-yl)-1-methyl-1H-pyrazol-3-yl)-3-(4-((1-methylpiperidin-4-ylidene)methyl)-3-(trifluoromethyl)phenyl)urea] |
| > 100 | Cc1cc2oc(-c3cnn4ccccc34)nc2cc1NC(=O)Nc1ccc(CN2CCN(C)CC2)c(C(F)(F)F)c1 [Compound 17, 1-(6-methyl-2-(pyrazolo[1,5-a]pyridin-3-yl)benzo[d]oxazol-5-yl)-3-(4-((4-methylpiperazin-1-yl)methyl)-3-(trifluoromethyl)phenyl)urea] |
| 5 to 50 | O=C(/C=C\c1ccccc1)Nc1ccc2oc(-c3cccnc3)nc2c1 [Compound 60, (Z)-3-phenyl-N-(2-(pyridin-3-yl)benzo[d]oxazol-5-yl)acrylamide] |
| ≤ 5 | CN1CCN(Cc2ccc(NC(=O)Nc3cc(-c4ccc5cc(N)ncc5c4)[nH]n3)cc2C(F)(F)F)CC1 [Compound 52, 1-(5-(3-aminoisoquinolin-7-yl)-1H-pyrazol-3-yl)-3-(4-((4-methylpiperazin-1-yl)methyl)-3-(trifluoromethyl)phenyl)urea] |
| 5 to 50 | O=C(Nc1ccc2oc(-c3cccnc3)nc2c1)[C@H]1C[C@H]1c1ccccc1 [Compound 59, (1S,2R)-2-phenyl-N-(2-(pyridin-3-yl)benzo[d]oxazol-5-yl)cyclopropane-1-carboxamide] |
| 50 to 100 | Cn1nc(Nc2c(NC3CCCC3)c(=O)c2=O)cc1-c1ccc2nc(N)ncc2c1 [Compound 76, 3-((5-(2-aminoquinazolin-6-yl)-1-methyl-1H-pyrazol-3-yl)amino)-4-(cyclopentylamino)cyclobut-3-ene-1,2-dione] |
| ≤ 5 | CN1CCN(Cc2ccc(NC(=O)Nc3cc(-c4ccc5ncnc(N)c5c4)n(C)n3)cc2C(F)(F)F)CC1 [Compound 28, 1-(5-(4-aminoquinazolin-6-yl)-1-methyl-1H-pyrazol-3-yl)-3-(4-((4-methylpiperazin-1-yl)methyl)-3-(trifluoromethyl)phenyl)urea] |
| > 100 | CNS(=O)(=O)c1ccc(NC(=O)Nc2cc(-c3ccc4ccncc4c3)n(C)n2)cc1 [Compound 70, 4-(3-(5-(isoquinolin-7-yl)-1-methyl-1H-pyrazol-3-yl)ureido)-N-methylbenzenesulfonamide] |
| 5 to 50 | CN1CCN(Cc2ccc(NC(=O)Nc3cc(-c4cnc5ccccc5c4)n(C)n3)cc2C(F)(F)F)CC1 [Compound 25, 1-(1-methyl-5-(quinolin-3-yl)-1H-pyrazol-3-yl)-3-(4-((4-methylpiperazin-1-yl)methyl)-3-(trifluoromethyl)phenyl)urea] |
| > 100 | CN1CCN(Cc2ccc(NC(=O)Nc3cc(-c4ccc(-c5cccc6nccnc56)cc4)n(C)n3)cc2C(F)(F)F)CC1 [Compound 53] |
| > 100 | Cn1nc(NC(=O)Nc2ccc(CN3CCCCC3)c(C(F)(F)F)c2)cc1-c1ccc2ccncc2c1 [Compound 42, 1-(5-(isoquinolin-7-yl)-1-methyl-1H-pyrazol-3-yl)-3-(4-(piperidin-1-ylmethyl)-3-(trifluoromethyl)phenyl)urea] |
| > 100 | Cc1c(NC(=O)Nc2ccc(CN3CCN(C)CC3)c(C(F)(F)F)c2)ccc2oc(-c3cnn4ccccc34)nc12 [Compound 18, 1-(4-methyl-2-(pyrazolo[1,5-a]pyridin-3-yl)benzo[d]oxazol-5 yl)-3-(4-((4-methylpiperazin-1-yl)methyl)-3-(trifluoromethyl)phenyl)urea] |
| > 100 | CN1CCN(Cc2ccc(NC(=O)Nc3ccc4oc(-c5cccnc5)nc4c3)cc2C(F)(F)F)CC1 [Compound 15, 1-(4-((4-methylpiperazin-1-yl)methyl)-3-(trifluoromethyl)phenyl)-3-(2-(pyridin-3-yl)benzo[d]oxazol-5-yl)urea] |
| 5 to 50 | CN1CCN(Cc2ccc(NC(=O)Nc3nc(-c4ccc5ccncc5c4)n(C)n3)cc2C(F)(F)F)CC1 [Compound 34, 1-(5-(isoquinolin-7-yl)-1-methyl-1H-1,2,4-triazol-3-yl)-3-(4-((4-methylpiperazin-1-yl)methyl)-3-(trifluoromethyl)phenyl)urea] |
| ≤ 5 | CN1CCN(Cc2ccc(NC(=O)Nc3cc(-c4ccc5ncncc5c4)n(C)n3)cc2C(F)(F)F)CC1 [Compound 22, 1-(1-methyl-5-(quinazolin-6-yl)-1H-pyrazo1-3-yl)-3-(4-((4-methylpiperazin-1-yl)methyl)-3-(trifluoromethyl)phenyl)urea] |
| ≤ 5 | CN1CCN(Cc2ccc(NC(=O)Nc3cc(-c4ccc5ccncc5c4)n(C)n3)cc2C(F)(F)F)CC1 [Compound 24, 1-(5-(isoquinolin-7-yl)-1-methyl-1H-pyrazol-3-yl)-3-(4-((4-methylpiperazin-1-yl)methyl)-3-(trifluoromethyl)phenyl)urea] |
| ≤ 5 | CN1CCN(Cc2ccc(NC(=O)Nc3cc(-c4ccc5nc(N)nc(N)c5c4)n(C)n3)cc2C(F)(F)F)CC1 [Compound 29, 1-(5-(2,4-diaminoquinazolin-6-yl)-1-methyl-1H-pyrazol-3-yl)-3-(4-((4-methylpiperazin-1-yl)methyl)-3-(trifluoromethyl)phenyl)urea] |
| 5 to 50 | CN1CCN(Cc2ccc(NC(=O)Nc3cc(-c4cccnc4)[nH]n3)cc2C(F)(F)F)CC1 [Compound 7, 1-(4-((4-methylpiperazin-1-yl)methyl)-3-(trifluoromethyl)phenyl)-3-(5-(pyridin-3-yl)-1H-pyrazol-3-yl)urea] |
| > 100 | CN1CCN(Cc2ccc(NC(=O)Nc3cc(-c4cccn5ccnc45)n(C)n3)cc2C(F)(F)F)CC1 [Compound 5] |
| 5 to 50 | CN1CCN(Cc2ccc(NC(=O)Nc3cc(-c4ccnc5c4ccn5C)n(C)n3)cc2C(F)(F)F)CC1 [Compound 12, 1-(1-methyl-5-(1-methyl-1H-pyrrolo[2,3-b]pyridin-4-yl)-1H-pyrazol-3-yl)-3-(4-((4-methylpiperazin-1-yl)methyl)-3-(trifluoromethyl)phenyl)urea] |
| > 100 | Cn1nc(NC(=O)Nc2ccc(CN3CCC(O)CC3)c(C(F)(F)F)c2)cc1-c1ccc2ccncc2c1 [Compound 41, 1-(4-((4-hydroxypiperidin-1-yl)methyl)-3-(trifluoromethyl)phenyl)-3-(5-(isoquinolin-7-yl)-1-methyl-1H-pyrazol-3-yl)urea] |
| 5 to 50 | CN1CCN(Cc2ccc(CC(=O)Nc3cc(-c4ccc5cc(N)ncc5c4)n(C)n3)cc2C(F)(F)F)CC1 [Compound 51, N-(5-(3-aminoisoquinolin-7-yl)-1-methyl-1H-pyrazol-3-yl)-2-(4-((4-methylpiperazin-1-yl)methyl)-3-(trifluoromethyl)phenyl)acetamide] |
| > 100 | O=C(Nc1ccc(CN2CCNCC2)c(C(F)(F)F)c1)Nc1ccc2oc(-c3cccnc3)nc2c1 [Compound 13, 1-(4-(piperazin-1-ylmethyl)-3-(trifluoromethyl)phenyl)-3-(2-(pyridin-3-yl)benzo[d]oxazol-5-yl)urea] |
| ≤ 5 | CN1CCN(Cc2ccc(NC(=O)Nc3cc(-c4ccc5nc(C(F)F)[nH]c(=O)c5c4)n(C)n3)cc2C(F)(F)F)CC1 [Compound 8, 1-(5-(2-(difluoromethyl)-4-oxo-3,4-dihydroquinazolin-6-yl)-1-methyl-1H-pyrazol-3-yl)-3-(4-((4-methylpiperazin-1-yl)methyl)-3-(trifluoromethyl)phenyl)urea] |
| ≤ 5 | CN1CCN(Cc2ccc(Nc3c(Nc4cc(-c5ccc6ccncc6c5)n(C)n4)c(=O)c3=O)cc2)CC1 [Compound 74, 3-((5-(isoquinolin-7-yl)-1-methyl-1H-pyrazol-3-yl)amino)-4-((4-((4-methylpiperazin-1-yl)methyl)phenyl)amino)cyclo-but-3-ene-1,2-dione] |
| ≤ 5 | CN1CCN(Cc2ccc(NC(=O)Nc3cc(-c4ccc5nc(N)nc(O)c5c4)n(C)n3)cc2C(F)(F)F)CC1 [Compound 27, 1-(5-(2-amino-4-hydroxyquinazolin-6-yl)-1-methyl-1H-pyrazol-3-yl)-3-(4-((4-methylpiperazin-1-yl)methyl)-3-(trifluoromethyl)phenyl)urea] |
